Laboratory results published in US8207091B2, “Methods for improving growth and crop productivity of plants by adjusting plant hormone levels, ratios and/or co-factors” (Stoller Enterprises, Inc., priority 2004, dated 2012).

Columns and labels:
Type in all cases: in vivo
radish plants [1] = assay: Effects of PGR on radish growth (soil applied); settings: soil applied at planting and weekly, PGR solution 12 oz/acre, IAA or kinetin 0.84 micrograms per square foot; for Average Leaf Length: largest leaf, 21 days after planting, ± SD of the mean; for Average Hypocotyl Length: measured 21 days after planting, ± standard deviation of the mean
Method: In this experiment, the effects of PGRs on radish growth were observed. A total of eighty (80) plants were used for this experiment. Twenty (20) plants were treated with water as a control. Twenty (20) plants were treated with a PGR solution corresponding to a rate of 12 oz/acre. The PGR solution is an aqueous solution including 0.015% IAA, 0.005% IBA, 0.009% cytokinin and 0.005% gibberellic acid as active ingredients. […] A small measure, 0.0084 ml of this solution, was diluted into 100 ml of water and applied to the soil of a container having a surface area of about 1 square foot to correspond to an application rate of 12 oz/acre. Twenty (20) plants were treated with an auxin solution containing indole-3-acetic acid (IAA) at a rate of 0.84 micrograms in 100 ml water per square foot of surface area of the container. Finally, twenty (20) plants were treated with the cytokinin kinetin at a rate of 0.84 micrograms in 100 ml water per square foot of surface area of the container. Treatments were applied to soil at the time of planting and repeated every week thereafter. Length of the hypocotyl and largest leaf of each plant was measured 21 days after planting. The mean hypocotyl length and leaf length was calculated. Results are tabulated in Table I and illustrated in FIGS. 3 and 4.

[2] = test system: National pickling cucumber; assay: Effects of PGRs on cucumber vines and fruit, 84 days; settings: for Average Branch Number / Average Internode Number / Average Vine Length: 84 days after planting; for Average Internode Length: 84 days, vine length divided by internode number; for Average Cucumber Weight: harvested 84 days after planting
radish plants [3] = assay: Radish shoot height, treated twice at four day intervals; settings: IAA and kinetin equivalent to relative amounts in 6 oz/acre PGR solution; two treatments; 15 plants
Method: In this portion of the experiment radish plants were treated twice at four day intervals. Plants were treated first on emergence, and again four (4) days later. Measurements were taken one week after the last treatment. Treatments are equivalent to 6 oz/acre, 12 oz/acre, and 24 oz/acre of PGR solution, while the IAA and kinetin treatments are equivalent to the relative amounts in the 6 oz/acre rate of PGR solution. […] The results of these experiments are tabulated in Table II and illustrated in FIG. 5.

Tomato variety TSH04 = assay: Effects of PGRs on tomato fruit weight (greenhouse); settings: one truss per plant; 112 days after planting; PGR 6 oz/acre, IAA/kinetin 0.42 or 0.11 micrograms; soil or foliar not told apart
Method: In this experiment, the effects of PGRs on tomato yield were determined. Tomato variety TSH04, which is a processing tomato, was used. All plants were grown in five gallon pots in a greenhouse. Eight plants were used for each treatment. Application of the treatments was done aerially to eight plants and in the soil for eight plants to allow comparison of soil versus foliar application of the PGRs. Treatments were 6 oz/acre PGR solution. The treating solutions were prepared by diluting 0.0042 ml of concentrated solution into 100 ml water for application to the soil, or into 50 ml water for foliar application. The IAA solution was prepared by diluting 0.42 micrograms of IAA into 100 ml water for application to the soil, or into 50 ml water for foliar application. The cytokinin solution was prepared by diluting 0.42 micrograms of kinetin into 100 ml water for application to the soil, or into 50 ml water for spraying of the foliage. The solution containing both IAA and kinetin at a 1:1 ratio was prepared by diluting 0.42 micrograms of IAA and 0.42 micrograms of kinetin into 100 ml water for application to the soil, or into 50 ml water for foliar application. A solution containing both IAA and kinetin at a 4:1 ratio was prepared by diluting 0.42 micrograms of IAA and 0.11 micrograms of kinetin into 100 ml water for soil application, or into 50 ml water for foliar application. Finally, a solution containing both IAA and kinetin at a 1:4 ratio was prepared by diluting 0.11 micrograms of IAA and 0.42 micrograms of kinetin into 100 ml water for soil application, or into 50 ml water for foliar application. Water was employed as a control. Plants were kept pruned to one fruiting truss per plant and the weight of the fruit from each plant was measured when most of the fruit had ripened (112 days after planting). FIGS. 6 and 7 illustrate the increased fruit weight achieved, respectively, for total and individual fruits with each treatment.

[4] = test system: National pickling cucumber; assay: Effects of PGRs on cucumber internode length, 21 days; settings: soil applied weekly, 21 days after planting; for Internode 1 length: first (bottom) internode, 6 oz/acre or 0.42 micrograms; for Internode 2 length: second (middle) internode; for Internode 3 length: third (top) internode
Method: In this experiment, the effect of PGRs on cucumber internode length was determined. The cucumber variety used was the National pickling cucumber distributed by NK Lawn & Garden Co. (Chattanooga, Tenn.). Eight plants were used per treatment. Treatments were applied to the soil of each five-gallon pot containing one plant per pot. Treatments were 6 oz/acre PGR solution. The final PGR solution was prepared by diluting 0.0042 ml of the concentrated solution into 100 ml water. The IAA solution was prepared by diluting 0.42 micrograms of IAA into 100 ml water. The cytokinin solution was prepared by diluting 0.42 micrograms of kinetin into 100 ml water. Finally, plants were treated with 6 oz/acre N-Large. The treating solution was prepared by diluting 0.0042 ml of the commercial solution into 100 ml water. N-Large is a formulation containing 4 percent gibberellin (GA3). Water was used as a control. Treatments were applied to the soil at the time of planting, and weekly thereafter. Twenty-one (21) days after planting, the internode length of the first (bottom), second (middle), and third (top) internodes were measured to the nearest millimeter. The average internode length for first, second, and third internodes was calculated for each treatment. Results are tabulated in Table IV and illustrated in FIG. 8.

Compound	Average Leaf Length (radish plants [1]) [mm]	Average Hypocotyl Length (radish plants [1]) [mm]	Average Branch Number [2]	Average Internode Number [2]	Average Vine Length [2] [mm]	Average Internode Length [2] [mm]	Average Cucumber Weight [2] [gm]	Shoot Height Foliar Applied (radish plants [3]) [mm]	Average total fruit weight per plant (Tomato variety TSH04) [grams]	Average weight of each fruit (Tomato variety TSH04) [grams]	Internode 1 length [4] [millimeters]	Internode 2 length [4] [millimeters]	Internode 3 length [4] [millimeters]
O=C(O)Cc1c[nH]c2ccccc12 [Auxin, indole-3-acetic acid]	121.15 ± 5.20	51.15 ± 2.64	7.25 ± 1.86	30.75 ± 1.96	267.00 ± 5.70	8.72 ± 0.87	311.98 ± 9.17	91.46 ± 4.20	63.79 ± 7.59	11.45 ± 1.99	115.88 ± 4.01	25.38 ± 3.13	4.50 ± 1.91
c1coc(CNc2ncnc3[nH]cnc23)c1 [Cytokinin, kinetin]	101.25 ± 4.46	46.10 ± 3.10	6.25 ± 2.27	30.50 ± 1.75	255.50 ± 5.61	8.37 ± 0.62	229.71 ± 1.33	89.00 ± 4.55	89.08 ± 6.85	14.76 ± 2.47	106.38 ± 3.98	20.25 ± 3.40	2.13 ± 1.25
